Laboratory results: patent US20260209247A1, “Substituted Tricyclic Compounds” (Lupin Limited, priority 2019, published 2026)

Columns and labels:
[1] = target: T1, protein-protein interaction between hSOS1 and hKRASG12C (Homo sapiens, UniProt Q07889); assay: KRAS-SOS1 interaction assay (HTRF); format: binding; settings: GST-hSOS1 564-1049aa, HIS-hKRASG12C, read-out: KRAS-SOS1 Interaction inhibition IC50
T1 construct: GST-hSOS1, 564-1049aa expressed and purified in-house
T1 sequence (Q07889 564-1049): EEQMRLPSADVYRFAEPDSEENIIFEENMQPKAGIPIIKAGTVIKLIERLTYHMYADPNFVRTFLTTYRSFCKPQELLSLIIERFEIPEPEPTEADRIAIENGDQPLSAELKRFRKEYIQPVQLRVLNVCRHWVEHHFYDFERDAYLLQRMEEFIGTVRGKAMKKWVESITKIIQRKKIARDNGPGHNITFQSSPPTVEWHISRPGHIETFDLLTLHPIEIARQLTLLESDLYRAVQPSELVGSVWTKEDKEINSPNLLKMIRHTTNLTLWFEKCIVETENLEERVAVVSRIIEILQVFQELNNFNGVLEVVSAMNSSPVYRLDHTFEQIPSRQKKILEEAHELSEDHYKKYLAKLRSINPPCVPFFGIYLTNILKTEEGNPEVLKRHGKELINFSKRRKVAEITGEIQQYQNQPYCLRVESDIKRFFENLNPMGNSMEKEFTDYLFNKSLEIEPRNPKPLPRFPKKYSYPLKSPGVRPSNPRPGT
In short: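 GST-hSOS1 (564-1049aa) at 10-50 nM working solution pre-incubated with compounds 10 min at 20° C in HEPES pH 7.4 buffer with EDTA, DTT, BSA and Igepal. HIS-hKRASG12C (100-300 nM working solution) added for 30-60 min, then anti-GST-d2/anti-HIS-Tb detection; percent inhibition from the 665/620 nm ratio.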

[2] = target: T2, nucleotide exchange on hKRASG12C mediated by hSOS1 (Homo sapiens, UniProt Q07889); assay: Guanine nucleotide exchange assay (GNEA, HTRF); format: biochemical; settings: HIS-hSOS1 564-1049aa mediated GTP loading onto GST-hKRASG12C 1-169aa, read-out: Guanine nucleotide exchange inhibition IC50
T2 construct: HIS-hSOS1, 564-1049aa mediated GTP loading onto GST-hKRASG12C; His (N); made in house
T2 sequence (Q07889 564-1049): T1 sequence (Q07889 564-1049)
In short: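 Compounds were pre-incubated 10 min at 20 °C with HIS-hSOS1 (564-1049aa) and EDA-GTP-DY-647P1 (working solution 10-50 nM and 200 nM) in pH 7.4 HEPES with NaCl, MgCl2, DTT, BSA and Igepal. GST-hKRASG12C (1-169aa, 25-125 nM working solution) plus anti-GST-Tb was added for 30-60 min at 20 °C. Percent inhibition came from the HTRF 665/620 nm ratio.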

[3] = tested on: pERK after EGF stimulation in DLD1 cells; assay: ERK phosphorylation assay (alphascreen pERK); format: cell-based; settings: Homo sapiens, DLD-1, 2 h compound, 200 ng/ml hEGF for 5 minutes, read-out: ERK phosphorylation inhibition IC50
In short: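 DLD1 cells pretreated with test compounds for 2 h, then stimulated with 200 ng/ml hEGF for 5 min. Lysates assayed by AlphaScreen SureFire for ERK1/2 p-T202/Y204, read after 2 h at 25–28 °C. % inhibition relative to the stimulated-minus-unstimulated vehicle window.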

[4] = tested on: MIA PaCa-2 human pancreatic cancer xenograft; assay: MIA PaCa-2 xenograft efficacy study; format: in vivo; settings: 30 mg/kg, b.i.d., p.o., nude mice
Method: In vivo efficacy of compounds 68, 101b at a dose of 30 mg/kg, b.i.d., p.o. and compound 81 at a dose of 50 mg/kg, b.i.d., p.o., was evaluated in MIA PaCa-2 human pancreatic cancer xenograft model in nude mice.
MIA PaCa-2 tumor fragments were implanted subcutaneously in the right flank region of nude mice. Tumor-bearing mice were randomized once the tumors reached an average volume of ~141-142 mm^3 (tumor volume range 72-242 mm^3).
To assess the efficacy of compound 81, the tumor-bearing mice were randomized once the tumors reached an average volume of ~181-183 mm^3 (tumor volume range 73-251 mm^3). The mice were divided into the following groups (n=8/group): Vehicle control and compound 81 (50 mg/kg, b.i d., p.o.).

Compound | IC50 [1] | IC50 [2] | IC50 [3] | tumor growth inhibition [4]
COC1(C)C(=O)N(C)c2cc3c(N[C@H](C)c4cccc(C(F)(F)C(C)(C)O)c4F)nc(C)nc3cc21 (single isomer, unassigned) [Compound 101b] | 1 to 10 nM | 1 to 30 nM | 1 to 200 nM | 65.71%
Cc1nc(N[C@H](C)c2cccc(C(F)(F)CO)c2F)c2cc3c(cc2n1)N(C)C(=O)C3(C)C [Compound 80, (R)-4-((1-(3-(1,1-difluoro-2-hydroxyethyl)-2-fluorophenyl)ethyl)amino)-2,6,6,8-tetramethyl-6,8-dihydro-7H-pyrrolo[3,2-g]quinazolin-7-one] | 1 to 10 nM | 1 to 30 nM | 1 to 200 nM | –
CCc1nc(N[C@H](C)c2cccc(C(F)(F)C(C)(C)O)c2F)c2cc3c(cc2n1)N(C)C(=O)C3(C)C [Compound 86, (R)-4-((1-(3-(1,1-difluoro-2-hydroxy-2-methylpropyl)-2-fluorophenyl)ethyl)amino)-2-ethyl-6,6,8-trimethyl-6,8-dihydro-7H-pyrrolo[3,2-g]quinazolin-7-one] | 1 to 10 nM | 31 to 130 nM | 1 to 200 nM | –
CCN1C(=O)C(C)(C)c2cc3c(N[C@H](C)c4cccc(C(F)(F)CO)c4F)nc(C)nc3cc21 [Compound 88, (R)-4-((1-(3-(1,1-difluoro-2-hydroxyethyl)-2-fluorophenyl)ethyl)amino)-8-ethyl-2,6,6-trimethyl-6,8-dihydro-7H-pyrrolo[3,2-g]quinazolin-7-one] | 1 to 10 nM | 1 to 30 nM | 1 to 200 nM | –
Cc1nc(N[C@H](C)c2cccc(C(F)(F)C(C)(C)O)c2F)c2cc3c(c(C)c2n1)N(C)C(=O)C3(C)C [Compound 90, (R)-4-((1-(3-(1,1-difluoro-2-hydroxy-2-methylpropyl)-2-fluorophenyl)ethyl)amino)-2,6,6,8,9-pentamethyl-6,8-dihydro-7H-pyrrolo[3,2-g]quinazolin-7-one] | 1 to 10 nM | 31 to 130 nM | 1 to 200 nM | –
CCC1(CC)C(=O)N(C)c2cc3nc(C)nc(N[C@H](C)c4cccc(C(F)(F)C(C)(C)O)c4F)c3cc21 [Compound 91, (R)-4-((1-(3-(1,1-difluoro-2-hydroxy-2-methylpropyl)-2-fluorophenyl)ethyl)amino)-6,6-diethyl-2,8-dimethyl-6,8-dihydro-7H-pyrrolo[3,2-g]quinazolin-7-one] | 11 to 25 nM | 31 to 130 nM | 1 to 200 nM | –
Cc1nc(N[C@H](C)c2cccc(C(F)(F)C(C)(C)O)c2F)c2cc3c(cc2n1)N(C)C(=O)C3(CF)CF [Compound 92, (R)-4-((1-(3-(1,1-difluoro-2-hydroxy-2-methylpropyl)-2-fluorophenyl)ethyl)amino)-6,6-bis(fluoromethyl)-2,8-dimethyl-6,8-dihydro-7H-pyrrolo[3,2-g]quinazolin-7-one] | 1 to 10 nM | 31 to 130 nM | 201 to 500 nM | –
COC1(C)C(=O)N(C)c2cc3c(N[C@H](C)c4cccc(C(F)(F)C(C)(C)O)c4F)nc(C)nc3cc21 (stereo partly drawn) [Compound 101, (R&S)-4-(((R)-1-(3-(1,1-difluoro-2-hydroxy-2-methylpropyl)-2-fluorophenyl)ethyl)amino)-8-methoxy-2,6,8-trimethyl-6,8-dihydro-7H-pyrrolo[2,3-g]quinazolin-7-one] | 1 to 10 nM | 1 to 30 nM | 1 to 200 nM | –
CCn1c(=O)n(C)c2cc3nc(C)nc(N[C@H](C)c4cccc(C(F)(F)C(C)(C)O)c4F)c3cc21 [Compound 104, (R)-8-((1-(3-(1,1-difluoro-2-hydroxy-2-methylpropyl)-2-fluorophenyl)ethyl)amino)-1-ethyl-3,6-dimethyl-1H-imidazo[4,5-g]quinazolin-2(3H)-one] | 1 to 10 nM | 1 to 30 nM | 1 to 200 nM | –
Cc1nc(N[C@H](C)c2cccc(C(F)(F)C(C)(C)O)c2F)c2cc3c(cc2n1)n(C)c(=O)n3C(C)C [Compound 105, (R)-8-((1-(3-(1,1-difluoro-2-hydroxy-2-methylpropyl)-2-fluorophenyl)ethyl)amino)-1-isopropyl-3,6-dimethyl-1H-imidazo[4,5-g]quinazolin-2(3H)-one] | 1 to 10 nM | 1 to 30 nM | 1 to 200 nM | –
Cc1nc(N[C@H](C)c2cccc(C(F)(F)C(C)(C)O)c2F)c2cc3c(cc2n1)n(C)c(=O)n3CC(F)F [Compound 106, (R)-8-((1-(3-(1,1-difluoro-2-hydroxy-2-methylpropyl)-2-fluorophenyl)ethyl)amino)-1-(2,2-difluoroethyl)-3,6-dimethyl-1H-imidazo[4,5-g]quinazolin-2(3H)-one] | 1 to 10 nM | 1 to 30 nM | 1 to 200 nM | –
Cc1nc(N[C@H](C)c2cccc(C(F)(F)C(C)(C)O)c2F)c2cc3c(cc2n1)n(C)c(=O)n3C [Compound 109, (R)-8-((1-(3-(1,1-difluoro-2-hydroxy-2-methylpropyl)-2-fluorophenyl)ethyl)amino)-1,3,6-trimethyl-1,3-dihydro-2H-imidazo[4,5-g]quinazolin-2-one] | 1 to 10 nM | 1 to 30 nM | 1 to 200 nM | –
C[C@@H](Nc1nc(C2CC2)nc2cc3c(cc12)C(C)(C)C(=O)N3C)c1cccc(C(F)(F)C(C)(C)O)c1F [Compound 110, (R)-2-cyclopropyl-4-((1-(3-(1,1-difluoro-2-hydroxy-2-methylpropyl)-2-fluorophenyl)ethyl)amino)-6,6,8-trimethyl-6,8-dihydro-7H-pyrrolo[3,2-g]quinazolin-7-one] | 11 to 25 nM | 31 to 130 nM | 201 to 500 nM | –
Cc1nc(N[C@H](C)c2cccc(C(F)(F)C(C)(C)O)c2F)c2cc3c(cc2n1)C1(CCOCC1)C(=O)N3C [Compound 122, (R)-4′-((1-(3-(1,1-difluoro-2-hydroxy-2-methylpropyl)-2-fluorophenyl)ethyl)amino)-2′,6′-dimethyl-2,3,5,6-tetrahydrospiro[pyran-4,8′-pyrrolo[2,3-g]quinazolin]-7′(6′H)-one] | 1 to 10 nM | 1 to 30 nM | 1 to 200 nM | –
CO[C@]1(C)C(=O)N(C)c2cc3c(N[C@H](C)c4cc(N)cc(C(F)(F)F)c4)nc(C)nc3cc21 [Compound 131, (S)-4-(((R)-1-(3-amino-5-(trifluoromethyl)phenyl)ethyl)amino)-8-methoxy-2,6,8-trimethyl-6,8-dihydro-7H-pyrrolo[2,3-g]quinazolin-7-one] | 11 to 25 nM | 31 to 130 nM | 1 to 200 nM | –
Cc1nc(N[C@H](C)c2cc(N)cc(C(F)(F)F)c2)c2cc3c(cc2n1)C1(CCOCC1)C(=O)N3C [Compound 138, (R)-4′-((1-(3-amino-5-(trifluoromethyl)phenyl)ethyl)amino)-2′,6′-dimethyl-2,3,5,6-tetrahydrospiro[pyran-4,8′-pyrrolo[2,3-g]quinazolin]-7′(6′H)-one] | 11 to 25 nM | 31 to 130 nM | 1 to 200 nM | –
CCC1(OC)C(=O)N(C)c2cc3c(N[C@H](C)c4cc(N)cc(C(F)(F)F)c4)nc(C)nc3cc21 (stereo partly drawn) [Compound 139, (R & S)-4-(((R)-1-(3-amino-5-(trifluoromethyl)phenyl)ethyl)amino)-8-ethyl-8-methoxy-2,6-dimethyl-6,8-dihydro-7H-pyrrolo[2,3-g]quinazolin-7-one] | 11 to 25 nM | 31 to 130 nM | 201 to 500 nM | –
